Laboratory results taken from publication PMC10912062, “A novel PET probe to selectively image heat shock protein 90α/β isoforms in the brain” (EJNMMI Radiopharmacy and Chemistry, 2024).

What was measured:
Assay in all cases: biochemical
Details in all cases: read-out: Percentage of inhibition / BIIB021 1×10-5 mol/L; competitive radioligand binding
[1] = target: T1, Cannabinoid CB2 (Human) (Homo sapiens, UniProt P34972)
T1 construct: gene CNR2
Procedure: (§1) Percent inhibition for each protein was calculated following the reported method (Okamura et al. [2013]).

[2] = target: T2, Dopamine D3 (Human) (Homo sapiens, UniProt P35462)
T2 construct: gene DRD3
Procedure: as §1

[3] = target: T3, Endothelin ETB (Human) (Homo sapiens, UniProt P24530)
T3 construct: gene EDNRB
Procedure: as §1

[4] = target: T4, Adenosine A2a (Human) (Homo sapiens, UniProt P29274)
T4 construct: gene ADORA2A
Procedure: as §1

[5] = target: T5, Opiate δ (Human) (Homo sapiens, UniProt P41143)
T5 construct: gene OPRD1
Procedure: as §1

[6] = target: T6, Dopamine D2 short (Human) (Homo sapiens, UniProt P14416)
T6 construct: gene DRD2; short isoform
Procedure: as §1

[7] = target: T7, Endothelin ETA (Human) (Homo sapiens, UniProt P25101)
T7 construct: gene EDNRA
Procedure: as §1

[8] = target: T8, Histamine H1 (Human) (Homo sapiens, UniProt P35367)
T8 construct: gene HRH1
Procedure: as §1

[9] = target: T9, α2B-Adrenergic (Human) (Homo sapiens, UniProt P18089)
T9 construct: gene ADRA2B
Procedure: as §1

[10] = target: T10, Muscarinic M2 (Human) (Homo sapiens, UniProt P08172)
T10 construct: gene CHRM2
Procedure: as §1

[11] = target: T11, Neurokinin NK1 (Human) (Homo sapiens, UniProt P25103)
T11 construct: gene TACR1
Procedure: as §1

[12] = target: T12, Glucocorticoid (Human) (Homo sapiens, UniProt P04150)
T12 construct: gene NR3C1
Procedure: as §1

[13] = target: T13, α1B-Adrenergic (Rattus norvegicus, UniProt P15823)
T13 construct: gene Adra1b
Procedure: as §1

[14] = target: T14, Bradykinin B2 (Human) (Homo sapiens, UniProt P30411)
T14 construct: gene BDKRB2
Procedure: as §1

[15] = target: T15, β1-Adrenergic (Human) (Homo sapiens, UniProt P08588)
T15 construct: gene ADRB1
Procedure: as §1

[16] = target: T16, Muscarinic M1 (Human) (Homo sapiens, UniProt P11229)
T16 construct: gene CHRM1
T16 sequence (P11229 whole entry): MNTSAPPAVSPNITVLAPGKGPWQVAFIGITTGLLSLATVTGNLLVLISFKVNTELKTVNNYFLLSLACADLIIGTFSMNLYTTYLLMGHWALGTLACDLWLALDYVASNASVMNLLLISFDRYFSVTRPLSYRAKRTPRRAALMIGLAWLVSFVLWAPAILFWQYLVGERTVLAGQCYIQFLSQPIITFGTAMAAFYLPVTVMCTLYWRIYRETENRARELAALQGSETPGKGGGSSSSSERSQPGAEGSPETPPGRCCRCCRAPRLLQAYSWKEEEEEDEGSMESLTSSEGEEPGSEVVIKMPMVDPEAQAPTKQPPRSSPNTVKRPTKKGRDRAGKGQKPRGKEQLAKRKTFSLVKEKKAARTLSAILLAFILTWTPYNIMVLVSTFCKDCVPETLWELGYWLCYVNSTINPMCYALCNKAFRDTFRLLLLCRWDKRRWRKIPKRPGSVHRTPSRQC
Procedure: as §1

[17] = target: T17, CCK A (Human) (Homo sapiens, UniProt P32238)
T17 construct: gene CCKAR
T17 sequence (P32238 whole entry): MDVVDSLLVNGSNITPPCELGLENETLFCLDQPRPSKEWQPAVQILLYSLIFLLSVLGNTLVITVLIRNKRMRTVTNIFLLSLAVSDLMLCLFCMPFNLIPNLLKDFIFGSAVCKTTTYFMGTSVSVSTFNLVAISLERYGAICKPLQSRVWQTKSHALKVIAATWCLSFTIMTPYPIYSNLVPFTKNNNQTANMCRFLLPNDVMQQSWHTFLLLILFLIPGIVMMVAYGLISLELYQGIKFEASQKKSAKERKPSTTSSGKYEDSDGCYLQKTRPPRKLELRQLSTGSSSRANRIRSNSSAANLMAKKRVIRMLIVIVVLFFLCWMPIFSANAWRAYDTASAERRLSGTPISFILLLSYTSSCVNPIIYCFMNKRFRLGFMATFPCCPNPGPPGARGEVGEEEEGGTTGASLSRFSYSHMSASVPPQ
Procedure: as §1

[18] = target: T18, Serotonin transporter (Human) (Homo sapiens, UniProt P31645)
T18 construct: gene SLC6A4
Procedure: as §1

[19] = target: T19, Opiate μ (Human) (Homo sapiens, UniProt P35372)
T19 construct: gene OPRM1
Procedure: as §1

[20] = target: T20, Angiotensin AT1 (Human) (Homo sapiens, UniProt P30556)
T20 construct: gene AGTR1
T20 sequence (P30556 whole entry): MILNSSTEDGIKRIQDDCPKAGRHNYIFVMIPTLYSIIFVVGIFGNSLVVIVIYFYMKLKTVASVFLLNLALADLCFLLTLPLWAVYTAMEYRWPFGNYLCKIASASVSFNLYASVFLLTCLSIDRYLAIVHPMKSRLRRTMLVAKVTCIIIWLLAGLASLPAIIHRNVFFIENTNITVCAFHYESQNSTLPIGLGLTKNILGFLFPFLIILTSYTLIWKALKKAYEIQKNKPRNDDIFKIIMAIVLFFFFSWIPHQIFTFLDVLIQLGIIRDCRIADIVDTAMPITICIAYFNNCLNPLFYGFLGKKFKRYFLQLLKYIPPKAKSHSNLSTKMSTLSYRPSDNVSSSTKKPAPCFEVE
Procedure: as §1

[21] = target: T21, GABA B (Rattus norvegicus, UniProt Q9Z0U4)
T21 construct: gene Gabbr1
Procedure: as §1

[22] = target: T22, Serotonin 5HT2A (Human) (Homo sapiens, UniProt P28223)
T22 construct: gene HTR2A
Procedure: as §1

[23] = target: T23, Melatonin MT1 (Human) (Homo sapiens, UniProt P48039)
T23 construct: gene MTNR1A
Procedure: as §1

[24] = target: T24, Muscarinic M3 (Human) (Homo sapiens, UniProt P20309)
T24 construct: gene CHRM3
T24 sequence (P20309 whole entry): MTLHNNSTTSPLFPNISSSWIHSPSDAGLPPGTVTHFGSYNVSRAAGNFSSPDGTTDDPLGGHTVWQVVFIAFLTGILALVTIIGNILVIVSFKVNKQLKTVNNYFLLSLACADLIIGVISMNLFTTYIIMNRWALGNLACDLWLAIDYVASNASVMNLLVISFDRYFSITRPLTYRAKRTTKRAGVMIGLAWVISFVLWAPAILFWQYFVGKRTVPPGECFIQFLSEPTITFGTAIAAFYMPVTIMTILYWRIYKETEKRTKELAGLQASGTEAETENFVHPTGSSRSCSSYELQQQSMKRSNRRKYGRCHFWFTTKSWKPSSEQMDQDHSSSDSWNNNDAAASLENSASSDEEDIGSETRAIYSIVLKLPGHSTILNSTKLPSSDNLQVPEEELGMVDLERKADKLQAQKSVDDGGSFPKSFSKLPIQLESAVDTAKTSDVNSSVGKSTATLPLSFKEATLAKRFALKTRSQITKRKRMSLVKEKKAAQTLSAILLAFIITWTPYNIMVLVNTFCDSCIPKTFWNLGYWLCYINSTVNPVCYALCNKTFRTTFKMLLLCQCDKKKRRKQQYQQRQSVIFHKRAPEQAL
Procedure: as §1

[25] = target: T25, Neuropeptide Y2 (Human) (Homo sapiens, UniProt P49146)
T25 construct: gene NPY2R
Procedure: as §1

[26] = target: T26, Bradykinin B1 (Human) (Homo sapiens, UniProt P46663)
T26 construct: gene BDKRB1
T26 sequence (P46663 whole entry): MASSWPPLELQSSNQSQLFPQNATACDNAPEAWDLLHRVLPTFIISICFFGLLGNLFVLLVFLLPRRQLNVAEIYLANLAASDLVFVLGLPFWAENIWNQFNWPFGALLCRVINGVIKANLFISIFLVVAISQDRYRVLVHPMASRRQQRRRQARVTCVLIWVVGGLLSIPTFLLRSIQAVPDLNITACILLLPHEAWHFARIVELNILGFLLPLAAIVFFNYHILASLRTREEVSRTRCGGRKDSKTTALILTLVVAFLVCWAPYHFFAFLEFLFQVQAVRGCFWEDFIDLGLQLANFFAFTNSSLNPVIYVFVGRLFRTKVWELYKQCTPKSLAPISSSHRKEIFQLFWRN
Procedure: as §1

[27] = target: T27, Androgen (Rattus norvegicus, UniProt P15207)
T27 construct: gene Ar
T27 sequence (P15207 whole entry S389L): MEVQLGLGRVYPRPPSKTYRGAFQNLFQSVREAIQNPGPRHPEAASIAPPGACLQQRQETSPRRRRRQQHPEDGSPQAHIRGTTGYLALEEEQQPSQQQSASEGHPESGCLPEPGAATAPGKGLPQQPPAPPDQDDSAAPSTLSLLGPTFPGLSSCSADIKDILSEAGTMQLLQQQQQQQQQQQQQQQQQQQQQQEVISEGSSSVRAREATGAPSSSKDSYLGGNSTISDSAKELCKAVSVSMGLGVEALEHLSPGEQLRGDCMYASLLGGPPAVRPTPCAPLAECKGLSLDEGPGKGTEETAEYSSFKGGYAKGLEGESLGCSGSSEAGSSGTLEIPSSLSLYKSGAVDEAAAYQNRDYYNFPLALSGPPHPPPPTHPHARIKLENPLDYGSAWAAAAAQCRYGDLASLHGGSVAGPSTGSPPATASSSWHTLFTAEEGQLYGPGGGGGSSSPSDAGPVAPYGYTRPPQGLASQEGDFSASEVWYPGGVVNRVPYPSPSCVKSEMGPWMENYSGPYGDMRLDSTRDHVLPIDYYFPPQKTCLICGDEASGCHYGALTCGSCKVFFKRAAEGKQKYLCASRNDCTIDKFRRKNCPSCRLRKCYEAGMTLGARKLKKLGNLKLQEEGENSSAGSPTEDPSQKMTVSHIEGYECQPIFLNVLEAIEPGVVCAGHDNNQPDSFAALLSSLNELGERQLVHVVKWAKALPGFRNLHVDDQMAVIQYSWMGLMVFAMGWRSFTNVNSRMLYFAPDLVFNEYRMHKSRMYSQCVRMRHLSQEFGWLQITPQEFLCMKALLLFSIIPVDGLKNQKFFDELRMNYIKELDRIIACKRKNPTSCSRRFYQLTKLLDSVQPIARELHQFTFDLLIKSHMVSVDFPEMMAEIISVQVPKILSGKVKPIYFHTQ
Procedure: as §1

[28] = target: T28, Histamine H2 (Human) (Homo sapiens, UniProt P25021)
T28 construct: gene HRH2
Procedure: as §1

[29] = target: T29, Serotonin 5HT3 (Human) (Homo sapiens, UniProt P46098)
T29 construct: gene HTR3A
Procedure: as §1

[30] = target: T30, Adenosine A1 (Human) (Homo sapiens, UniProt P30542)
T30 construct: gene ADORA1
Procedure: as §1

[31] = target: T31, Opiate κ (Human) (Homo sapiens, UniProt P41145)
T31 construct: gene OPRK1
Procedure: as §1

[32] = target: T32, Vasopressin V1 (Rattus norvegicus, UniProt P30560)
T32 construct: gene Avpr1a
T32 sequence (P30560 whole entry): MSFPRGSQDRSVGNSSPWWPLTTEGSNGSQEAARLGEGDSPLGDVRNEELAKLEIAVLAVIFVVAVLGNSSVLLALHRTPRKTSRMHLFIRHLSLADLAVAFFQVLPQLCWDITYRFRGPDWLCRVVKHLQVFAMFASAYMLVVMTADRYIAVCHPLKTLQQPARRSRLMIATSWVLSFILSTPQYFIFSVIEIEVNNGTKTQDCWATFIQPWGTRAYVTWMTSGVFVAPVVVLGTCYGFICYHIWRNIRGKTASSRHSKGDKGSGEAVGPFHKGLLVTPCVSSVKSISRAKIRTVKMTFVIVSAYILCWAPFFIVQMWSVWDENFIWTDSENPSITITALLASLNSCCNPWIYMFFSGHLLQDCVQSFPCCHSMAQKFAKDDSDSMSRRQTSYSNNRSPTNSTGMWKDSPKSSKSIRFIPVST
Procedure: as §1

[33] = target: T33, Cannabinoid CB1 (Human) (Homo sapiens, UniProt P21554)
T33 construct: gene CNR1
Procedure: as §1

[34] = target: T34, Dopamine D1 (Human) (Homo sapiens, UniProt P21728)
T34 construct: gene DRD1
Procedure: as §1

[35] = target: T35, Norepinephrine transporter (Human) (Homo sapiens, UniProt P23975)
T35 construct: gene SLC6A2
Procedure: as §1

[36] = target: T36, Sigma σ2 (Rattus norvegicus, UniProt Q5U3Y7)
T36 construct: gene Tmem97
Procedure: as §1

[37] = target: T37, α2A-Adrenergic (Human) (Homo sapiens, UniProt P08913)
T37 construct: gene ADRA2A
T37 sequence (P08913 whole entry): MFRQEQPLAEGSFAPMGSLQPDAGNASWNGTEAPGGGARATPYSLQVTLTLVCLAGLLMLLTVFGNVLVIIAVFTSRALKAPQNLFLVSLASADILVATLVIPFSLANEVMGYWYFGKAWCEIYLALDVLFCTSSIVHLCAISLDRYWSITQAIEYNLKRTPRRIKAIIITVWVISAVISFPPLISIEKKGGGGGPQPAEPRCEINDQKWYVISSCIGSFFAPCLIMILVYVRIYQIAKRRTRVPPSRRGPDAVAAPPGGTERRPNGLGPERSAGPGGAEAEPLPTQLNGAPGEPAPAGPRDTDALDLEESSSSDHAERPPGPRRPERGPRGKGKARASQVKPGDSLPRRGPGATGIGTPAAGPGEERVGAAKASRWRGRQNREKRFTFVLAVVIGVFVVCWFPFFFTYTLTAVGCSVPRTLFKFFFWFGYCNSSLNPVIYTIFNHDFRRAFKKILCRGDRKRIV
Procedure: as §1

[38] = target: T38, Serotonin 5HT1A (Human) (Homo sapiens, UniProt P08908)
T38 construct: gene HTR1A
Procedure: as §1

[39] = target: T39, β2-Adrenergic (Human) (Homo sapiens, UniProt P07550)
T39 construct: gene ADRB2
Procedure: as §1

[40] = target: T40, Dopamine transporter (Human) (Homo sapiens, UniProt Q01959)
T40 construct: gene SLC6A3
Procedure: as §1

[41] = target: T41, Histamine H3 (Human) (Homo sapiens, UniProt Q9Y5N1)
T41 construct: gene HRH3
T41 sequence (Q9Y5N1 whole entry): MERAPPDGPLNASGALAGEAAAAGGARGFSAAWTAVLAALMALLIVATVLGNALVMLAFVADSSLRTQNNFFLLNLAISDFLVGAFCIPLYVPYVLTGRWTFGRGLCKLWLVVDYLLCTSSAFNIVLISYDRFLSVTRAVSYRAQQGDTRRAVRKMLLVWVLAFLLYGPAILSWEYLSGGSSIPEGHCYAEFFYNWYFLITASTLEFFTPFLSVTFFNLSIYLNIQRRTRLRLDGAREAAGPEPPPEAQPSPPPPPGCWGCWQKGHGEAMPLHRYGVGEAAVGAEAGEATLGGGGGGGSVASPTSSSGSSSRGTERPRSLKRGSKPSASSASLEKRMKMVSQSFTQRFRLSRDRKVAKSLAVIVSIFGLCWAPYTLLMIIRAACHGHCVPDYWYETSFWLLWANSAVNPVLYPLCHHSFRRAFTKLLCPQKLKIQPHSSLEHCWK
Procedure: as §1

[42] = target: T42, α1A-Adrenergic (Rattus norvegicus, UniProt P43140)
T42 construct: gene Adra1a
T42 sequence (P43140 whole entry): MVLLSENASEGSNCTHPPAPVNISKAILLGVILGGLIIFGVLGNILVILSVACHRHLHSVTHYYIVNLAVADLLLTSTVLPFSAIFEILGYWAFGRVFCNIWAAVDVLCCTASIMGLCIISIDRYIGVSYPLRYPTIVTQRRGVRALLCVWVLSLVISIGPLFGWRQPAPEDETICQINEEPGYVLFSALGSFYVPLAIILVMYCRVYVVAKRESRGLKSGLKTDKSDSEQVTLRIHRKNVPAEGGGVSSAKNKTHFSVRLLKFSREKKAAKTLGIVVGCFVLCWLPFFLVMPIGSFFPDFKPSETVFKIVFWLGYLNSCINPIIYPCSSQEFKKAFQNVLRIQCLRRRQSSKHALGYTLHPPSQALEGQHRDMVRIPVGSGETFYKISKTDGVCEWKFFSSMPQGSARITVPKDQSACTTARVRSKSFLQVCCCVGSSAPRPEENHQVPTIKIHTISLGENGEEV
Procedure: as §1

SMILES: COc1c(C)cnc(Cn2cnc3c(Cl)nc(N)nc32)c1C [BIIB021, 6-Chloro-9-[(4-methoxy-3,5-dimethylpyridin-2-yl)methyl]-9H-purin-2-amine]
- inhibition at 10 µM [1]: 0%
- inhibition at 10 µM [2]: 0.4%
- inhibition at 10 µM [3]: 4.7%
- inhibition at 10 µM [4]: 14%
- inhibition at 10 µM [5]: 4.2%
- inhibition at 10 µM [6]: 0.9%
- inhibition at 10 µM [7]: 4.8%
- inhibition at 10 µM [8]: 8.1%
- inhibition at 10 µM [9]: 0%
- inhibition at 10 µM [10]: 4.6%
- inhibition at 10 µM [11]: 6.2%
- inhibition at 10 µM [12]: 0%
- inhibition at 10 µM [13]: 0%
- inhibition at 10 µM [14]: 0%
- inhibition at 10 µM [15]: 0%
- inhibition at 10 µM [16]: 1.5%
- inhibition at 10 µM [17]: 2.8%
- inhibition at 10 µM [18]: 0%
- inhibition at 10 µM [19]: 0%
- inhibition at 10 µM [20]: 0%
- inhibition at 10 µM [21]: 0%
- inhibition at 10 µM [22]: 4.9%
- inhibition at 10 µM [23]: 26%
- inhibition at 10 µM [24]: 1.9%
- inhibition at 10 µM [25]: 1.3%
- inhibition at 10 µM [26]: 0%
- inhibition at 10 µM [27]: 0.7%
- inhibition at 10 µM [28]: 0.7%
- inhibition at 10 µM [29]: 18%
- inhibition at 10 µM [30]: 8.4%
- inhibition at 10 µM [31]: 14%
- inhibition at 10 µM [32]: 3%
- inhibition at 10 µM [33]: 5.1%
- inhibition at 10 µM [34]: 16%
- inhibition at 10 µM [35]: 0%
- inhibition at 10 µM [36]: 2.4%
- inhibition at 10 µM [37]: 13%
- inhibition at 10 µM [38]: 7.6%
- inhibition at 10 µM [39]: 0.9%
- inhibition at 10 µM [40]: 1.1%
- inhibition at 10 µM [41]: 4.5%
- inhibition at 10 µM [42]: 1.8%
